Laboratory results published in patent US11986471B2, “Compounds and methods of use” (Tango Therapeutics, Inc., priority 2018, dated 2024).
pIC50: −log10 of the molar value.

How the values were obtained:
[1] = target: T1, PRMT5 (Homo sapiens, UniProt O14744); assay: PRMT5 IC50 assay in the presence of MTA as cofactor; assay type: biochemical; settings: for pIC50: PRMT5, MTA as cofactor
T1 construct: purchased Viva (custom protein)
Procedure, shortened: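 Potency against PRMT5 is compared across cofactor states, where IC50 equals Ki×1.5 with SAM present and Ki×13.5 with MTA present.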

[2] = system: HAP1 MTAP-intact; assay: SDMA in-cell western assay, HAP1 MTAP-intact cell line; assay type: cell-based; settings: Homo sapiens
Procedure, shortened: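 IC50 values come from SDMA in-cell western staining of HAP1 cells. The MTAP-intact line carries endogenous MTAP, while its MTAP-deleted counterpart lacks MTAP entirely. A selectivity ratio of at least 3 fold marks a compound as MTAP-selective.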

[3] = target: T1, PRMT5; assay: PRMT5 IC50 assay in the presence of SAM as cofactor; assay type: biochemical
Procedure, shortened: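 IC50 against PRMT5 determined with SAM as cofactor, with no cofactor, and with MTA as cofactor. Ki derived as IC50/1.5 for the SAM assay and IC50/13.5 for the MTA assay; SAM Ki to MTA Ki ratio also reported.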

[4] = target: T1, PRMT5; assay: PRMT5 IC50 assay with no cofactor; assay type: biochemical
Procedure, shortened: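 Each compound is tested on PRMT5 in the presence of SAM, of MTA, and without any cofactor. Ki values are then back-calculated using fixed factors of 1.5 (SAM) and 13.5 (MTA), and the two Ki values are compared as a ratio.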

[5] = system: HAP1 MTAP-deleted; assay: SDMA in-cell western assay, HAP1 MTAP-deleted cell line; assay type: cell-based; settings: for pIC50: Homo sapiens, HAP1 MTAP-deleted cell line; for MTAP Intact/Deleted Ratio: IC50 ratio HAP1 MTAP-intact / HAP1 MTAP-deleted
Procedure, shortened: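 Readout is cellular SDMA signal by in-cell western, with IC50 values derived from it. The cells are MTAP-null HAP1, matched to an isogenic MTAP-intact HAP1 line.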

[6] = ratio between Ki in the presence of SAM and Ki in the presence of MTA
[7] = ratio between the Ki in the presence of SAM and the Ki in the presence of MTA

T1 sequence (O14744 whole entry): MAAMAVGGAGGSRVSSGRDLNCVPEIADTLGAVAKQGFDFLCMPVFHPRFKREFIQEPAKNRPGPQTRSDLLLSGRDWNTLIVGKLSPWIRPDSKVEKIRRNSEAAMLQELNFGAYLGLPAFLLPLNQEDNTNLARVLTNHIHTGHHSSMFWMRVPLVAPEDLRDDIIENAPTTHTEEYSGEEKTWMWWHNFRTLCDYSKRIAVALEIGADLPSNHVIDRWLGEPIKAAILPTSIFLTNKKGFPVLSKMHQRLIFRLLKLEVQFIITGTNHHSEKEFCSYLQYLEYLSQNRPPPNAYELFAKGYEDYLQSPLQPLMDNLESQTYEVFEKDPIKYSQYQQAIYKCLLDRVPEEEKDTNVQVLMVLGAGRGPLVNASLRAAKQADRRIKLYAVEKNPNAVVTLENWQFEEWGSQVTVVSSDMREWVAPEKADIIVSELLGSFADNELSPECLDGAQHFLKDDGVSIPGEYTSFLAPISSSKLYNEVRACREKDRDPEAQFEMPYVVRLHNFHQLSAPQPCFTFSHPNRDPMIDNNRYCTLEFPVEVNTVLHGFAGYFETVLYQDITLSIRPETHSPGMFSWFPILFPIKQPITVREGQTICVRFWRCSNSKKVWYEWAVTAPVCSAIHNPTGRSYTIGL
T1 sequence (Q9BQA1 whole entry partner): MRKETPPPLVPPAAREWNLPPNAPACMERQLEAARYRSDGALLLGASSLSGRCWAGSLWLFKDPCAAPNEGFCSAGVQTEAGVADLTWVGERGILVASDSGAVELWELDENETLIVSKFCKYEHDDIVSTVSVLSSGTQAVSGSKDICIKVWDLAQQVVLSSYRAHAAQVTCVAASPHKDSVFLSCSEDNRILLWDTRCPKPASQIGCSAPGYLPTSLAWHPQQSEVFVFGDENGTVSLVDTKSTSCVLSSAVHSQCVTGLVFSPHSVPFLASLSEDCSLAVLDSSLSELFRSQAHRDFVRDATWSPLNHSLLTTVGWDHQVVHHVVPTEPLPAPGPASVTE

## O=C(NC[C@H](O)CN1CCc2c(ccc(OCc3cnco3)c2Cl)C1)c1ccc(OC2CCN(Cc3ccccc3)CC2)cc1 [Compound 330, (S)-4-((1-benzylpiperidin-4-yl)oxy)-N-(3-(5-chloro-6-(oxazol-5-ylmethoxy)-3,4-dihydroisoquinolin-2(1H)-yl)-2-hydroxypropyl)benzamide]
[1]
  pIC50: 6.30 to 7.30
[1]; [6]
  SAM/MTA Ratio: A (a Ki ratio greater than or equal to 10 fold between the Ki in the presence of SAM and the Ki in the presence of MTA)
[2]
  pIC50: ≤ 5.00
[3]
  pIC50: 6.30 to 7.30
[4]; read-out: No Co-factor IC50
  pIC50: 5.30 to 6.30
[5]
  pIC50: ≤ 5.00
  MTAP Intact/Deleted Ratio: C* (an IC50 ratio of less than 3 fold between the IC50 in the HAP1 MTAP-intact cell line and the HAP1 MTAP-deleted cell line)

## Cc1ncoc1COc1ccc2c(c1)CCN(C[C@@H](O)CNC(=O)c1cc(NC3COC3)nc(N3CCN(C)CC3)n1)C2 [Compound 387]
[1]
  pIC50: 6.30 to 7.30
[1]; [6]
  SAM/MTA Ratio: A (a Ki ratio greater than or equal to 10 fold between the Ki in the presence of SAM and the Ki in the presence of MTA)
[2]
  pIC50: 5.00 to 6.00
[3]
  pIC50: 6.30 to 7.30
[4]; read-out: No Co-factor IC50
  pIC50: 5.30 to 6.30
[5]
  pIC50: > 6.00
  MTAP Intact/Deleted Ratio: B* (an IC50 ratio greater than or equal to 3 fold but lower than 10 fold between the IC50 in the HAP1 MTAP-intact cell line and the HAP1 MTAP-deleted cell line)

## CC(=O)N1CCC(Nc2cc(C(=O)NC[C@H](O)CN3CCc4cc(OCc5cnco5)ccc4C3)ncn2)CC1 [Compound 135, 6-[(1-acetyl-4-piperidyl)amino]-N-[(2S)-2-hydroxy-3-[6-(oxazol-5-ylmethoxy)-3,4-dihydro-1H-isoquinolin-2-yl]propyl]pyrimidine-4-carboxamide]
[1]
  pIC50: 6.30 to 7.30
[1]; [6]
  SAM/MTA Ratio: A (a Ki ratio greater than or equal to 10 fold between the Ki in the presence of SAM and the Ki in the presence of MTA)
[2]
  pIC50: 5.00 to 6.00
[3]
  pIC50: 6.30 to 7.30
[4]; read-out: No Co-factor IC50
  pIC50: ≤ 5.30
[5]
  pIC50: 5.00 to 6.00
  MTAP Intact/Deleted Ratio: C* (an IC50 ratio of less than 3 fold between the IC50 in the HAP1 MTAP-intact cell line and the HAP1 MTAP-deleted cell line)

## Cc1c(OCc2cnco2)ccc2c1CCN(C[C@@H](O)CNC(=O)c1ccnc(NC3CCN(C(=O)C(C)(C)C)CC3)c1)C2 [Compound 402, (S)—N-(2-hydroxy-3-(5-methyl-6-(oxazol-5-ylmethoxy)-3N-dihydroisoquinolin-2(1H)-yl)propyl)-2-((1-pivaloylpiperidin-4-yl)amino)isonicotinamide]
[1]
  pIC50: 6.30 to 7.30
[1]; [6]
  SAM/MTA Ratio: A (a Ki ratio greater than or equal to 10 fold between the Ki in the presence of SAM and the Ki in the presence of MTA)
[2]
  pIC50: ≤ 5.00
[3]
  pIC50: 6.30 to 7.30
[4]; read-out: No Co-factor IC50
  pIC50: 5.30 to 6.30
[5]
  pIC50: 5.00 to 6.00
  MTAP Intact/Deleted Ratio: B* (an IC50 ratio greater than or equal to 3 fold but lower than 10 fold between the IC50 in the HAP1 MTAP-intact cell line and the HAP1 MTAP-deleted cell line)

## Cc1ncoc1COc1ccc2c(c1)CCN(C[C@@H](O)CNC(=O)c1cc(NC3CCC3)nc(N3CCN(C(C)C)CC3)c1)C2 [Compound 428, 2-(cyclobutylamino)-N-[(2S)-2-hydroxy-3-{6-[(4-methyl-1,3-oxazol-5-yl)methoxy]-1,2,3,4-tetrahydroisoquinolin-2-yl}propyl]-6-[4-(propan-2-yl)piperazin-1-yl]pyridine-4-carboxamide]
[1]
  pIC50: > 7.30
[1]; [7]
  SAM/MTA Ratio: A (a Ki ratio greater than or equal to 10 fold between the Ki in the presence of SAM and the Ki in the presence of MTA)
[2]
  pIC50: ≤ 5.00
[3]
  pIC50: 6.30 to 7.30
[4]
  pIC50: 5.30 to 6.30
[5]
  pIC50: ≤ 5.00
  MTAP Intact/Deleted Ratio: C* (an IC50 ratio of less than 3 fold between the IC50 in the HAP1 MTAP-intact cell line and the HAP1 MTAP-deleted cell line)

## CCN(C)c1nc(NC2COC2)cc(C(=O)NC[C@H](O)CN2CCc3cc(OCc4ocnc4C)ccc3C2)n1 [Compound 457, 2-[ethyl(methyl)amino]-N-[(2S)-2-hydroxy-3-{6-[(4-methyl-1,3-oxazol-5-yl)methoxy]-1,2,3,4-tetrahydroisoquinolin-2-yl}propyl]-6-[(oxetan-3-yl)amino]pyrimidine-4-carboxamide]
[1]
  pIC50: 6.30 to 7.30
[1]; [7]
  SAM/MTA Ratio: A (a Ki ratio greater than or equal to 10 fold between the Ki in the presence of SAM and the Ki in the presence of MTA)
[2]
  pIC50: > 6.00
[3]
  pIC50: 6.30 to 7.30
[4]
  pIC50: 5.30 to 6.30
[5]
  pIC50: > 6.00
  MTAP Intact/Deleted Ratio: C* (an IC50 ratio of less than 3 fold between the IC50 in the HAP1 MTAP-intact cell line and the HAP1 MTAP-deleted cell line)

## CCN(C)c1nc(NC2COC2)cc(C(=O)NC[C@H](O)CN2CCc3c(ccc(OCc4cnco4)c3Cl)C2)n1 [Compound 303]
[1]
  pIC50: 6.30 to 7.30
[1]; [6]
  SAM/MTA Ratio: A (a Ki ratio greater than or equal to 10 fold between the Ki in the presence of SAM and the Ki in the presence of MTA)
[2]
  pIC50: ≤ 5.00
[3]
  pIC50: 6.30 to 7.30
[4]; read-out: No Co-factor IC50
  pIC50: ≤ 5.30
[5]
  pIC50: 5.00 to 6.00
  MTAP Intact/Deleted Ratio: C* (an IC50 ratio of less than 3 fold between the IC50 in the HAP1 MTAP-intact cell line and the HAP1 MTAP-deleted cell line)

## CCC(=O)N1CCN(c2cc(C(=O)NC[C@H](O)CN3CCc4cc(OCc5cnco5)ccc4C3)cc(NC3CCC3)n2)CC1 [Compound 397, (S)-2-(cyclobutylamino)-N-(2-hydroxy-3-(6-(oxazol-5-ylmethoxy)-3,4-dihydroisoquinolin-2(1H)-yl)propyl)-6-(4-propionylpiperazin-1-yl)isonicotinamide]
[1]
  pIC50: 6.30 to 7.30
[1]; [6]
  SAM/MTA Ratio: A (a Ki ratio greater than or equal to 10 fold between the Ki in the presence of SAM and the Ki in the presence of MTA)
[2]
  pIC50: 5.00 to 6.00
[3]
  pIC50: 6.30 to 7.30
[4]; read-out: No Co-factor IC50
  pIC50: 5.30 to 6.30
[5]
  pIC50: > 6.00
  MTAP Intact/Deleted Ratio: C* (an IC50 ratio of less than 3 fold between the IC50 in the HAP1 MTAP-intact cell line and the HAP1 MTAP-deleted cell line)

## O=C(NC[C@H](O)CN1CCc2cc(OCc3cnco3)ccc2C1)c1ccnc(NC2CN(C(=O)C3CC3)C2)c1 [Compound 563, 2-[[1-(cyclopropanecarbonyl)azetidin-3-yl]amino]-N-[(2S)-2-hydroxy-3-[6-(oxazol-5-ylmethoxy)-3,4-dihydro-1H-isoquinolin-2-yl]propyl]pyridine-4-carboxamide]
[1]
  pIC50: 6.30 to 7.30
[1]; [7]
  SAM/MTA Ratio: A (a Ki ratio greater than or equal to 10 fold between the Ki in the presence of SAM and the Ki in the presence of MTA)
[2]
  pIC50: 5.00 to 6.00
[3]
  pIC50: 6.30 to 7.30
[4]
  pIC50: 5.30 to 6.30
[5]
  pIC50: 5.00 to 6.00
  MTAP Intact/Deleted Ratio: C* (an IC50 ratio of less than 3 fold between the IC50 in the HAP1 MTAP-intact cell line and the HAP1 MTAP-deleted cell line)

## CCC(=O)N1CC(Nc2cc(C(=O)NC[C@H](O)CN3CCc4c(ccc(OCc5cnco5)c4Cl)C3)ccn2)C1 [Compound 426, (S)—N-(3-(5-chloro-6-(oxazol-5-ylmethoxy)-3,4-dihydroisoquinolin-2(1H)-yl)-2-hydroxypropyl)-2-((1-propionylazetidin-3-yl)amino)isonicotinamide]
[1]
  pIC50: 6.30 to 7.30
[1]; [7]
  SAM/MTA Ratio: A (a Ki ratio greater than or equal to 10 fold between the Ki in the presence of SAM and the Ki in the presence of MTA)
[2]
  pIC50: ≤ 5.00
[3]
  pIC50: 6.30 to 7.30
[4]
  pIC50: 5.30 to 6.30
[5]
  pIC50: ≤ 5.00
  MTAP Intact/Deleted Ratio: C* (an IC50 ratio of less than 3 fold between the IC50 in the HAP1 MTAP-intact cell line and the HAP1 MTAP-deleted cell line)

## O=C(NC[C@H](O)CN1CCc2cc(OCc3cnco3)ccc2C1)c1cncc(NC2CCOCC2)c1 [Compound 383]
[1]
  pIC50: 5.30 to 6.30
[1]; [6]
  SAM/MTA Ratio: A (a Ki ratio greater than or equal to 10 fold between the Ki in the presence of SAM and the Ki in the presence of MTA)
[2]
  pIC50: ≤ 5.00
[3]
  pIC50: 5.30 to 6.30
[4]; read-out: No Co-factor IC50
  pIC50: ≤ 5.30
[5]
  pIC50: ≤ 5.00
  MTAP Intact/Deleted Ratio: C* (an IC50 ratio of less than 3 fold between the IC50 in the HAP1 MTAP-intact cell line and the HAP1 MTAP-deleted cell line)

## O=C(NC[C@H](O)CN1CCc2c(ccc(OCc3cnco3)c2Cl)C1)c1ccc(OC2CCN(Cc3ccncc3)CC2)cc1 [Compound 301, (S)—N-(3-(5-chloro-6-(oxazol-5-ylmethoxy)-3,4-dihydroisoquinolin-2(1H)-yl)-2-hydroxypropyl)-4-((1-(pyridin-4-ylmethyl)piperidin-4-yl)oxy)benzamide]
[1]
  pIC50: 6.30 to 7.30
[1]; [6]
  SAM/MTA Ratio: A (a Ki ratio greater than or equal to 10 fold between the Ki in the presence of SAM and the Ki in the presence of MTA)
[2]
  pIC50: ≤ 5.00
[3]
  pIC50: 6.30 to 7.30
[4]; read-out: No Co-factor IC50
  pIC50: 5.30 to 6.30
[5]
  pIC50: 5.00 to 6.00
  MTAP Intact/Deleted Ratio: C* (an IC50 ratio of less than 3 fold between the IC50 in the HAP1 MTAP-intact cell line and the HAP1 MTAP-deleted cell line)

## Cc1c(OCc2cn[nH]c2)ccc2c1CCN(C[C@@H](O)CNC(=O)c1ccnc(NC3CCC3)c1)C2 [Compound 254, 2-(cyclobutylamino)-N-[(2S)-2-hydroxy-3-[5-methyl-6-(1H-pyrazol-4-ylmethoxy)-3,4-dihydro-1H-isoquinolin-2-yl]propyl]pyridine-4-carboxamide]
[1]
  pIC50: 6.30 to 7.30
[1]; [6]
  SAM/MTA Ratio: A (a Ki ratio greater than or equal to 10 fold between the Ki in the presence of SAM and the Ki in the presence of MTA)
[2]
  pIC50: 5.00 to 6.00
[3]
  pIC50: 5.30 to 6.30
[4]; read-out: No Co-factor IC50
  pIC50: 5.30 to 6.30
[5]
  pIC50: 5.00 to 6.00
  MTAP Intact/Deleted Ratio: C* (an IC50 ratio of less than 3 fold between the IC50 in the HAP1 MTAP-intact cell line and the HAP1 MTAP-deleted cell line)
